According to ChEMBL document CHEMBL4043266, “Pentacyclic triterpenes as α-glucosidase and α-amylase inhibitors: Structure-activity relationships and the synergism with acarbose” (Bioorg Med Chem Lett, 2017):
pIC50: −log10 of the molar value.

How the values were obtained:
Pancreatic alpha-amylase = molecular target: T1, Pancreatic alpha-amylase (Sus scrofa, UniProt P00690); test: Inhibition of porcine pancreatic alpha-amylase using starch as substrate preincubated for 15 mins followed by substrate addition measured after 10 mins by dinitrosalicylic acid reagent based assay
T1 sequence (P00690 whole entry): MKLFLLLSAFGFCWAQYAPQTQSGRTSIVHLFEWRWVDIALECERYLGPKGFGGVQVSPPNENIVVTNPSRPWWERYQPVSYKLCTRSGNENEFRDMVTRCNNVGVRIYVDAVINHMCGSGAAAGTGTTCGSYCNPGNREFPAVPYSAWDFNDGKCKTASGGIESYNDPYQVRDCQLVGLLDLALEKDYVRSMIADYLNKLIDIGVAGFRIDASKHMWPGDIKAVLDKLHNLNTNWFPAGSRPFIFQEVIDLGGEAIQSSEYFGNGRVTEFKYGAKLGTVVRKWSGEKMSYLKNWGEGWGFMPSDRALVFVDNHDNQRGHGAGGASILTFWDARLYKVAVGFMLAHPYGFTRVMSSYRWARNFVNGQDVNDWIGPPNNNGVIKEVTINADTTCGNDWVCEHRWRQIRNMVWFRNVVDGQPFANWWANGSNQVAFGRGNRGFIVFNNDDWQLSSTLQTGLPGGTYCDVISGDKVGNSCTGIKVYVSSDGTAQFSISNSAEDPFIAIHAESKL

[1] = Inhibition of yeast alpha-glucosidase using 4-nitrophenyl-alpha-D-glucopyranoside as substrate preincubated for 15 mins followed by substrate addition measured after 20 mins; set-up: species or system Saccharomyces cerevisiae

Structure (SMILES) | pIC50 (Pancreatic alpha-amylase) | pIC50 [1]
C[C@H]1[C@H](C)CC[C@]2(C(=O)O[C@@H]3O[C@H](CO[C@@H]4O[C@H](CO)[C@@H](O[C@@H]5O[C@@H](C)[C@H](O)[C@@H](O)[C@H]5O)[C@H](O)[C@H]4O)[C@@H](O)[C@H](O)[C@H]3O)CC[C@]3(C)C(=CC[C@@H]4[C@@]5(C)C[C@@H](O)[C@H](O)[C@@](C)(CO)[C@@H]5CC[C@]43C)[C@H]12 | < 3.70 | < 3.70
C[C@H]1O[C@H](O[C@H]2[C@H](O)[C@@H](O)[C@@H](O[C@H]3[C@H](O)[C@@H](O)C(O)O[C@@H]3CO)O[C@@H]2CO)[C@H](O)[C@@H](O)[C@@H]1N[C@H]1C=C(CO)[C@@H](O)[C@H](O)[C@H]1O (some centres not stated) [ACARBOSE] | – | 2.61
C[C@H]1[C@H](C)CC[C@]2(C(=O)O)CC[C@]3(C)C(=CC[C@@H]4[C@@]5(C)C[C@@H](O)[C@H](O)[C@@](C)(CO)[C@@H]5CC[C@]43C)[C@H]12 [ASIATIC ACID] | < 3.70 | 4.00
C=C(C)[C@@H]1CC[C@]2(C(=O)O)CC[C@]3(C)[C@H](CC[C@@H]4[C@@]5(C)CC[C@H](O)C(C)(C)[C@@H]5CC[C@]43C)[C@@H]12 [BETULINIC ACID] | < 3.70 | 4.83
C=C(C)[C@@H]1CC[C@]2(CO)CC[C@]3(C)[C@H](CC[C@@H]4[C@@]5(C)CC[C@H](O)C(C)(C)[C@@H]5CC[C@]43C)[C@@H]12 [BETULIN] | < 3.70 | 4.28
CC1(C)[C@@H](O)CC[C@]2(C)[C@H]3C(=O)C=C4[C@@H]5C[C@@](C)(C(=O)O)CC[C@]5(C)CC[C@@]4(C)[C@]3(C)CC[C@@H]12 [ENOXOLONE] | < 3.70 | < 3.70
CC1(C)[C@@H](O[C@H]2O[C@H](C(=O)O)[C@@H](O)[C@H](O)[C@H]2O[C@@H]2O[C@H](C(=O)O)[C@@H](O)[C@H](O)[C@H]2O)CC[C@]2(C)[C@H]3C(=O)C=C4[C@@H]5C[C@@](C)(C(=O)O)CC[C@]5(C)CC[C@@]4(C)[C@]3(C)CC[C@@H]12 [GLYCYRRHIZIN] | < 3.70 | < 3.70

Further compounds by rising pIC50 [1], results first:

pIC50 (Pancreatic alpha-amylase) | pIC50 [1] | Structure (SMILES)
– | 4.45 | CC1(C)CC[C@]2(C(=O)O)CC[C@]3(C)C(=CC[C@@H]4[C@@]5(C)CC[C@H](O)C(C)(C)[C@@H]5CC[C@]43C)[C@@H]2C1 [OLEANOLIC_ACID]
4.51 | 4.76 | C[C@H]1[C@H](C)CC[C@]2(C(=O)O)CC[C@]3(C)C(=CC[C@@H]4[C@@]5(C)C[C@@H](O)[C@H](O)C(C)(C)[C@@H]5CC[C@]43C)[C@H]12 [COROSOLIC ACID]
– | 4.92 | C[C@H]1[C@H](C)CC[C@]2(C(=O)O)CC[C@]3(C)C(=CC[C@@H]4[C@@]5(C)CC[C@H](O)C(C)(C)[C@@H]5CC[C@]43C)[C@H]12 [URSOLIC ACID]
